Measured values from patent US7265107B2, “Rifamycin C-11 oxime cyclo derivatives effective against drug-resistant microbes” (Cumbre Pharmaceuticals Inc., priority 2004, dated 2007).
Values after ≈ are worked out from the molar mass of the structure shown. Where two headings read alike, the source gives them in different places.

Legend:
Assay type in all cases: cell-based
[1] = test system: Haemophilus influenzae ATCC10211; details: rifS, BHI Broth with NAD and hematin, 37° C., read-out: Antimicrobial activity (MIC)
[2] = test system: Enterococcus faecalis ATCC29212; details: rifS, BHI Broth, 37° C., read-out: Antimicrobial activity (MIC)
[3] = test system: Streptococcus pneumoniae ATCC6303; details: rifS, THY Broth with 1 mg/mL catalase, 5% CO2, 37° C., read-out: Antimicrobial activity (MIC)
[4] = test system: Staphylococcus aureus EN1252a gvrA^S84L grlA^S80F; assay: microbe, parasite or virus in culture; details: read-out: Antimicrobial activity (MIC)
Method: (§1) Representative compounds were assayed for antimicrobial activity as follows: Minimum Inhibitory Concentrations (“MICs”) were determined by the microbroth dilution method as per NCCLS guidelines (National Committee for Clinical Laboratory Standards. 2000. Methods for dilution antimicrobial susceptibility tests for bacteria that grow aerobically, 5th ed. M7-A5. National Committee for Clinical Laboratory Standards, Wayne, Pa.), except that all growth incubations were conducted at 37° C. Bacterial cultures were tested in the following bacteriological media: S. aureus, S. epidermidis, and E. coli in Cation-Adjusted Mueller-Hinton Broth, S. pneumoniae in THY Broth supplemented with 1 mg/mL catalase under 5% CO2 atmosphere, S. pyogenes in THY Broth, E. faecalis in BHI Broth, H. influenzae in BHI Broth supplemented with 0.75 μL of 1 mg/mL NAD and 150 μL of 1 mg/ml hematin per 5 mL, and M. smegmatis in Middlebrook Broth plus ADC Enrichment.
S. aureus EN1252a gyrA^S84L grlA^S80F is a quinolone-resistant strain due to double mutations to the genes confer DNA gyrase and topoisomerase IV.

[5] = MIC, microbroth dilution, panel of rifampin-susceptible Gram-positive strains; details: across the five rifampin-susceptible Gram-positive strains
Method: as §1
S. aureus ATCC […], S. epidermidis ATCC 12228, S. pneumoniae ATCC6303, S. pyogenes ATCC 19615 and E. faecalis ATCC 29212 are rifampin-susceptible Gram-positive strains. […] The compounds of the current invention show further improved activity against these strains with MICs as low as 0.0005 μg/ml.

[6] = test system: Streptococcus pyogenes ATCC19615; details: rifS, THY Broth, 37° C., read-out: Antimicrobial activity (MIC)
[7] = cipR, Cation-Adjusted Mueller-Hinton Broth, 37° C.

SMILES | MIC [1] | MIC [2] | MIC [3] | MIC [4, 7] | MIC [5] | MIC [4] | MIC [6]
CO[C@H]1/C=C/O[C@@]2(C)Oc3c(C)c(O)c4c(=O)c(c5oc6cc(N7CCN(CCOCCO)CC7)cc(O)c6nc-5c4c3/C2=N/O)NC(=O)/C(C)=C\C=C\[C@H](C)[C@H](O)[C@@H](C)[C@@H](O)[C@@H](C)[C@H](OC(C)=O)[C@@H]1C [Example 17, 11-Deoxy-11-hydroxyimino-1′,4-didehydro-1-deoxy-1,4-dihydro-3′-hydroxy-5′-{4-[2-(2-hydroxy-ethoxy)-ethyl]-piperazin-1-yl}-1-oxo-rifamycin VIII] | 125 to 8000 ng/mL (≈ 127 to 8100 nM) | 500 to 31200 ng/mL (≈ 506 to 31600 nM) | 0.06 to 31 ng/mL (≈ 0.0607 to 31.4 nM) | 0.5 to 125 ng/mL (≈ 0.506 to 127 nM) | – | – | –
CO[C@H]1/C=C/O[C@@]2(C)Oc3c(C)c(O)c4c(=O)c(c5oc6cc(N(CCO)CCO)cc(O)c6nc-5c4c3/C2=N/O)NC(=O)/C(C)=C\C=C\[C@H](C)[C@H](O)[C@@H](C)[C@@H](O)[C@@H](C)[C@H](OC(C)=O)[C@@H]1C [Example 18, 11-Deoxy-11-hydroxyimino-1′,4-didehydro-1-deoxy-1,4-dihydro-3′-hydroxy-5′-[bis-(2-hydroxy-ethyl)-amino]-1-oxo-rifamycin VIII] | 125 to 8000 ng/mL (≈ 136 to 8710 nM) | 500 to 31200 ng/mL (≈ 544 to 34000 nM) | 0.06 to 31 ng/mL (≈ 0.0653 to 33.7 nM) | 0.5 to 125 ng/mL (≈ 0.544 to 136 nM) | – | – | –
CO[C@H]1/C=C/O[C@@]2(C)Oc3c(C)c(O)c4c(=O)c(c5oc6cc(N7CCN(C)CC7)cc(C)c6nc-5c4c3/C2=N/O)NC(=O)/C(C)=C\C=C\[C@H](C)[C@H](O)[C@@H](C)[C@@H](O)[C@@H](C)[C@H](OC(C)=O)[C@@H]1C [Example 19, 11-Deoxy-11-hydroxyimino-1′,4-didehydro-1-deoxy-1,4-dihydro-3′-methyl-5′-(4-methyl-1-piperazinyl)-1-oxo-rifamycin VIII] | 125 to 8000 ng/mL (≈ 137 to 8770 nM) | 500 to 31200 ng/mL (≈ 548 to 34300 nM) | 0.06 to 31 ng/mL (≈ 0.0658 to 34 nM) | 0.5 to 125 ng/mL (≈ 0.548 to 137 nM) | – | – | –
CO[C@H]1/C=C/O[C@@]2(C)Oc3c(C)c(O)c4c(=O)c(c5oc6cc(N7CCN(CC(C)C)CC7)ccc6nc-5c4c3/C2=N/O)NC(=O)/C(C)=C\C=C\[C@H](C)[C@H](O)[C@@H](C)[C@@H](O)[C@@H](C)[C@H](OC(C)=O)[C@@H]1C [Example 20, 11-Deoxy-11-hydroxyimino-1′,4-didehydro-1-deoxy-1,4-dihydro-5′-(4-isobutyl-1-piperazinyl)-1-oxo-rifamycin VIII] | 125 to 8000 ng/mL (≈ 133 to 8510 nM) | 500 to 31200 ng/mL (≈ 532 to 33200 nM) | 0.06 to 31 ng/mL (≈ 0.0638 to 33 nM) | 0.5 to 125 ng/mL (≈ 0.532 to 133 nM) | – | – | –
CO[C@H]1/C=C/O[C@@]2(C)Oc3c(C)c(O)c4c(c3/C2=N/OCC(=O)O)C2=NC3(CCN(CC(C)C)CC3)NC2=C(NC(=O)/C(C)=C\C=C\[C@H](C)[C@H](O)[C@@H](C)[C@@H](O)[C@@H](C)[C@H](OC(C)=O)[C@@H]1C)C4=O [Example 21, 11-Deoxy-11-(4-carboxymethoxyimino)-1′,4-didehydro-1-deoxy-1,4-dihydro-5′-(2-methylpropyl)-1-oxo-rifamycin XIV] | 125 to 8000 ng/mL (≈ 136 to 8690 nM) | 500 to 31200 ng/mL (≈ 543 to 34000 nM) | 0.06 to 31 ng/mL (≈ 0.0652 to 33.7 nM) | 0.5 to 125 ng/mL (≈ 0.543 to 136 nM) | – | – | –
COc1c(N2CCN(C(=O)CO/N=C3/c4c5c(C)c(O)c6c4C4=NC7(CCN(CC(C)C)CC7)NC4=C(NC(=O)/C(C)=C\C=C\[C@H](C)[C@H](O)[C@@H](C)[C@@H](O)[C@@H](C)[C@H](OC(C)=O)[C@H](C)[C@@H](OC)/C=C/O[C@@]3(C)O5)C6=O)C(C)C2)c(F)cc2c(=O)c(C(=O)O)cn(C3CC3)c12 (stereo partly drawn) [Example 22, 11-Deoxy-11-{2-oxo-2-[2-methyl4-(3-carboxy-1-cyclopropl-2-methoxy-6-fluoro-4-oxo-1,4-dihydroquinolin-7-yl)piperazin-1-yl]ethoxyimino}-1′,4-didehydro-1-deoxy-1,4-dihydro-5′-(2-methylpropyl)-1-oxo-rifamycin XIV] | 125 to 8000 ng/mL (≈ 97.9 to 6260 nM) | 500 to 31200 ng/mL (≈ 391 to 24500 nM) | 0.06 to 31 ng/mL (≈ 0.047 to 24.3 nM) | 0.5 to 125 ng/mL (≈ 0.391 to 97.9 nM) | – | – | –
CO[C@H]1/C=C/O[C@@]2(C)Oc3c(C)c(O)c4c(O)c(c(/C=N/N5CCN(C)CC5)c(O)c4c3C2=O)NC(=O)/C(C)=C\C=C\[C@H](C)[C@H](O)[C@@H](C)[C@@H](O)[C@@H](C)[C@H](OC(C)=O)[C@@H]1C [rifampin, reference compound] | 240 ng/mL (≈ 292 nM) | 1000 ng/mL (≈ 1220 nM) | 61 ng/mL (≈ 74.1 nM) | – | 13 to 1000 ng/mL (≈ 15.8 to 1220 nM) | 4 ng/mL (≈ 4.86 nM) | 13 ng/mL (≈ 15.8 nM)
